# According to US20060018827A1, “Positron therapy of inflammation, infection and disease” (priority 2004, published 2006):
# “And” between values parts separate entries of the source, which are not always exact repeats. Equal entries are not always repeated. Where two headings read alike, the source gives them in different places.
# How the values were obtained:
# [1] = test system: mammary tumors of PyMT mice; test: PET imaging of PyMT mice with ^18F-FDG; format: in vivo, mouse; details: PET 1 hour after i.p. 0.5-2.0 mCi
# Experimental: (§1) Animals. All procedures involving mice were conducted in accordance with the National Institutes of Health regulations concerning the use and care of experimental animals. The study of mice was approved by the Albert Einstein College of Medicine (AECOM) Animal Use Committee. Transgenic mice expressing the polyoma middle T antigen (PyMT) in the mammary epithelium under the control of mouse mammary tumor virus (MMTV) long terminal repeat were provided by Dr. W. J. Muller (McMaster University, Ontario, Canada) and then bred at AECOM. At the age of 10 weeks these mice have multiple mammary tumors 0.15-0.17 cm in diameter. In mice older than 18 weeks the tumors are more than 1 cm in diameter. MMTV-NeuT mice (Muller et al. 1988), which carry erbB-2 (Neu), one of the better known human breast cancer oncogenes, were purchased from Jackson Laboratories. MMTV-NeuT mice were obtained as retired breeders and some of them developed mammary tumors at the age of 5 months, whereas others remained-tumor free until 6-7 months of age. C3H/B6 female mice lacking the PyMT transgene were used as healthy controls in therapy experiments. […]
# (§2) Imaging of mice with ^18F-FDG. […] The tumor to liver ratios (TLRs) were calculated by the formula TLR=counts per pixel in tumor divided by counts per pixel in liver.
# [2] = test system: mammary tumors of MMTV-neuT mice; test: PET imaging of MMTV-neuT mice with ^18F-FDG; format: in vivo, mouse; details: PET 1 hour after i.p. 0.5-2.0 mCi
# Experimental: as §1, §2
# [3] = test system: xenografted Notch tumor; test: PET-CT imaging of Notch tumor-bearing mice with ^18F-FDG; format: in vivo, mouse; details: nude mice with Notch tumor; PET-CT 1 hour after i.p. 0.5 mCi
# Experimental: Notch cell line. Mouse mammary gland cell line 5505 was derived from mammary tumors arising in transgenic mice which express an activated form of Notch 4 from the mouse mammary tumor virus long terminal repeat (MMTV-LTR) promoter/enhancer (Fitzgerald et al. 2000). This cell line is further referred to herein as Notch cells. The Notch cells were cultured in DMEM supplemented with 10% FCS, 10% NCTC-109, 1% non-essential amino acids, […] D-glucose and 1% penicillin-streptomycin.
# Animals. All procedures involving mice were conducted in accordance with the National Institutes of Health regulations concerning the use and care of experimental animals. The study of mice was approved by the Albert Einstein College of Medicine (AECOM) Animal Use Committee. Transgenic mice expressing the polyoma middle T antigen (PyMT) in the mammary epithelium under the control of mouse mammary tumor virus (MMTV) long terminal repeat were provided by Dr. W. J. Muller (McMaster University, Ontario, Canada) and then bred at AECOM. At the age of 10 weeks these mice have multiple mammary tumors 0.15-0.17 cm in diameter. […]
# Notch tumor-bearing animals were fasted and anesthetized as described above. […] The tumor to normal muscle ratio (TNR) was calculated according to the formula: TNR=average counts per pixel in tumor/average counts per pixel in normal muscle.
# [4] = test system: metastatic cancers; test: FDG-PET SUVmax in patients with different types of metastatic cancer; format: in vivo, human
# Experimental: ^18F-FDG-PET in breast cancer patients with metastatic disease. Approval was obtained from the Albert Einstein College of Medicine Cancer Center Protocol Review Committee and the Montefiore Medical Center Institutional Review Board. Retrospectively, five consecutive patients with breast cancer and metastatic disease shown on ^18F-FDG-PET scanning were evaluated. After more than 4 hours of fasting, the patients were administered 3.5 mCi of ^18F-FDG, and rested during an uptake period of 45 minutes. The patients then underwent a whole-body scan on the CPET scanner. The scanning protocol consisted of 6 minutes of emission and two rotations of a ^137Cs source for transmission per bed position, and approximately six bed positions. Images were corrected for attenuation and reconstructed with the iterative method. To reduce volume averaging, a small round region of interest 12 pixels in size was drawn in the center of the tumor and in the center of normal liver. The diameter of the region was 14 mm. Standardized uptake values (SUVs) were calculated for all regions of interest by the formula SUV=(activity in tissue [mCi/g]) divided by (injected activity [mCi]/body weight [g]). The tumor to liver ratios (TLRS) were calculated by the formula TLR=SUV of tumor divided by SUV of liver.
# Human Tumor Dosimetry. For each patient, the tumor with the highest SUVmax was used, and corresponding calculated tumor dose (TD) for metastatic cancers are shown in Columns 4 and 5 in Table 3. Tumor dose is calculated by the formulae: D(cGy)=100*SUV, for a dose of 5 Ci HD ^18F-FDG; and D(cGy)=150*SUV, for a dose of 7.5 Ci HD ^18F-FDG.
# [5] = 70 Kg person, cited from earlier work
compound,measurement,setting,value
"O=C[C@H]([18F])[C@@H](O)[C@H](O)[C@H](O)CO [^18F-FDG, ^18F-2-deoxy-2-fluoro-D-glucose]","tumor to liver ratio (TLR), mean±SD",[1],1.6±0.1
same,"tumor to liver ratio (TLR), mean±SD",[2],1.6±0.4
same,tumor to normal muscle ratio (TNR),[3],3.24 and 3.24±0.20
same,SUVmax Median,"[4]; metastatic Anaplastic Thyroid cancer, 3 patients",17.4
same,SUVmax Median,"[4]; metastatic Breast cancer, 10 patients",7.2
same,SUVmax Median,"[4]; metastatic Cervical cancer, 4 patients",7.0
same,SUVmax Median,"[4]; metastatic Esophageal cancer, 5 patients",11.1
same,SUVmax Median,"[4]; metastatic Head & Neck cancer, 9 patients",6.6
same,SUVmax Median,"[4]; metastatic Lung cancer, 10 patients",5.9
same,SUVmax Median,"[4]; metastatic Lymphoma, 9 patients",5.6
same,SUVmax Median,"[4]; metastatic Melanoma, 7 patients",9.0
same,SUVmax Median,"[4]; metastatic Ovarian cancer, 9 patients",5.3
same,maximum SUV,"[4]; patient with metastatic esophageal cancer, abdominal metastasis",33
same,maximum SUV,"[4]; patient with metastatic non-small cell lung cancer, right mediastinum",14.8
same,Radiation dose to organ from 1 mCi ^18F-FDG,[5]; Bone marrow,0.04 cGy/mCi
same,Radiation dose to organ from 1 mCi ^18F-FDG,[5]; Brain,0.17 cGy/mCi
same,Radiation dose to organ from 1 mCi ^18F-FDG,[5]; Heart wall,0.25 cGy/mCi
same,Radiation dose to organ from 1 mCi ^18F-FDG,[5]; Kidneys,0.078 cGy/mCi
same,Radiation dose to organ from 1 mCi ^18F-FDG,[5]; Liver,0.088 cGy/mCi
same,Radiation dose to organ from 1 mCi ^18F-FDG,[5]; Lungs,0.056 cGy/mCi
same,Radiation dose to organ from 1 mCi ^18F-FDG,[5]; Ovaries,0.041 cGy/mCi
same,Radiation dose to organ from 1 mCi ^18F-FDG,[5]; Testes,0.041 cGy/mCi
same,Radiation dose to organ from 1 mCi ^18F-FDG,[5]; Urinary bladder,0.27 cGy/mCi
